# Test results from article PMC12333015, “Profiling the Impact of mGlu7/Elfn1 Protein Interactions on the Pharmacology of mGlu7 Allosteric Modulators” (ACS Chemical Neuroscience, 2025).
# Test system: pyramidal cell to SST-IN synapses in the prefrontal cortex
# Experiment: Ex vivo whole-cell electrophysiology, eEPSCs recorded from SST-INs in prefrontal cortex slices
# Assay type: cell-based, mouse
# Conditions: 30 μM L-AP4 alone, bath applied
# Source text: Shown in Figure A are representative traces of eEPSCs recorded from SST-INs in response to 5-pulse stimulation with baseline in black, illustrating the characteristic facilitating nature of pyramidal cell (PYR) to SST-IN synapses.
# Transgenic mice (both male and female) expressing tdTomato fluorescent protein in SST-INs were used in this study. They were generated by crossing female homozygous SST-Cre (Sst^tm2.1(cre)Zjh/J, Stock #: 013044, Jackson Laboratories) with male homozygous Ai9 mice (B6;Cg-Gt(Rosa)-26Sor^tm9(CAG‑tdTomato)Hze/J, Stock #: 007909, Jackson Laboratories). All animals were group housed with food and water available ad libitum, kept under a 12 h light/dark cycle with lights on from 6:00 AM to 6:00 PM, and were used for experiments during the light phase. All of the experimental procedures were approved by the Vanderbilt University Animal Care and Use committee and followed the guidelines set forth by the Guide for the Care and Use of Laboratory Animals. […] Whole cell recordings were made from visually identified, fluorescence-labeled SST-INs in layer V of PFC slices under the upright microscope. […] Excitatory postsynaptic currents (EPSCs) were recorded from layer V SST-INs at a holding potential of −80 mV and evoked by electrical stimulation (100 μs duration, applied every 15 s) through a concentric bipolar stimulating electrode placed around 100–150 μm from the recorded cell. The holding potential of −80 mV under voltage clamp is closed to the calculated reversal potential of Cl^– and thus the EPSCs recorded in the present studies had minimal GABAA-mediated component. Electrical stimulation applied near the recorded cell in the cortex presumably activates the local neurons preferentially. […] Data were analyzed using Clampfit 10 (Molecular Devices), Excel (Microsoft), and Prism (GraphPad Software), and presented as mean ± SEM. […]
compound,measurement,value
"N[C@@H](CCP(=O)(O)O)C(=O)O [L-AP4, L-2-amino-4-phosphonobutyric acid, reference compound]",effect on eEPSC amplitude,reduced eEPSC amplitude
